Experimental data as given in patent publication US20260042759A1, “INHIBITOR CONTAINING BICYCLIC DERIVATIVE, PREPARATION METHOD THEREFOR AND USE THEREOF” (SHANGHAI HANSOH BIOMEDICAL CO., LTD., priority 2019, published 2026).

Experiments:
RET M918T = molecular target: T1, RET M918T (Homo sapiens, UniProt P07949, M918T); experiment: HTRF kinase assay, RET M918T; type: biochemical; details: ATP at Km
T1 construct: purchased Carna 08-508
Source text: (§1) • RET enzyme was purchased from Carna Company, and the article number was 08-159; • RET M918T enzyme was purchased from Carna Company, and the article number was 08-508; • KIF5B-RET was purchased from SignalChem Company, the article number was R02-19FG-05; • CCDC6-RET was purchased from SignalChem Company, the article number was R02-19BG-05; • RET V804M enzyme was purchased from Thermofisher Company, and the article number was PV6223; • RET V804L enzyme was purchased from Thermofisher Company, and the article number was PV4397; • HTRF KinEASE-TK kit was purchased from Cisbio Company, and the article number was 62TK0PEC; • ATP was purchased from Thermofisher Company, and the article number was PV3227; • 384-well plate was purchased from PerkinElmer Company, and the article number was 6007290.
(§2) In this experiment, the homogeneous time-resolved fluorescence (HTRF) method was used for the detection of compounds on RET kinase activity.

[1] = system: TT cells (MTC, RET C634W); experiment: TT cell proliferation (CellTiter-Glo); type: cell-based, human; details: Homo sapiens, TT, 72 h
Experimental: When TT cells were cultured to the appropriate fusion level, TT cells were collected, and the cells were adjusted to the appropriate cell concentration using complete medium, and the cell suspension was spread in a 96-well plate, 90 µL per well, and placed in a 37° C., 5% CO2 incubator overnight; and compound solutions of different concentrations were prepared using DMSO and culture medium; and a solvent control was set, the compound solution was added to a 96-well plate, 10 µL per well, at 37° C. in a 5% CO2 incubator for 72 hours; CellTiter-Glo solution was added thereto and the mixture was mixed well by shaking, incubated for 10 min in the dark, and read by BioTek Synergy H1 microplate reader.
The luminescence signal values were used to calculate the inhibition rate, the concentration and the inhibition rate were fitted to a nonlinear regression curve using Graphpad Prism software.

[2] = Balb/C mouse pharmacokinetics, oral; type: in vivo; details: male, mouse, po, Balb/C mice, p.o., 5 mg/kg, plasma
Experimental: The pharmacokinetic behavior of the following compound embodiments, administered orally at a dose of 5 mg/kg in plasma in mice, was studied using Balb/C mice as test animals.
Balb/C Mouse 6/embodiment, male, Shanghai Jiesijie Laboratory Animal Co., Ltd, Animal Production License No. (SCXK (Shanghai) 2013-0006 N0.311620400001794).
Balb/C mice, males; p.o. after overnight fasting, respectively, at a dose of 5 mg/kg, administered in a volume of 10 mL/kg.
0.5% CMC-Na(1% Tween80) was dissolved by ultrasound, and prepared into clear solution or uniform suspension.
Before and after administration, 0.1 mL of blood was collected from mice at 0, 0.5, 1, 2, 4, 6, 8 and 24 hours by orbital collection, placed in EDTA-K2 tubes, centrifuged at 6000 rpm at 4° C. for 6 min to separate plasma, and stored at −80° C.
40 μL of plasma sample was precipitated by adding 160 μL of acetonitrile, mixed and centrifuged at 3500×g for 5-20 min.
100 μL of the supernatant solution after treatment was taken to analyze the concentration of the test compound by LC/MS/MS.
The main pharmacokinetic parameters were calculated using WinNonlin 6.1 and the results of the mouse pharmacokinetic experiments were shown in Table 8 below.

RET = molecular target: T2, RET (Homo sapiens, UniProt P07949); experiment: HTRF kinase assay, RET wild-type; type: biochemical; details: ATP at Km
T2 construct: purchased Carna 08-159
Source text: as §1, §2

KDR kinase = molecular target: T3, KDR kinase (Homo sapiens, UniProt P35968); experiment: HTRF kinase assay, KDR; type: biochemical; details: for IC50: HTRF, ATP at Km; for Ratio (KDR/RET): KDR IC50 / RET IC50
T3 construct: purchased Carna 08-191
Source text: • KDR kinase was purchased from Carna Company, and the article number was 08-191; • HTRF KinEASE-TK kit was purchased from Cisbio Company, and the article number was 62TK0PEC; • ATP was purchased from Thermofisher Company, and the article number was PV3227; • 384-well plate was purchased from PerkinElmer Company, and the article number was 6007290.
In this experiment, the homogeneous time-resolved fluorescence (HTRF) method was used for the detection of compounds on KDR kinase activity.

Ba/F3 KIF5B-RET cells = molecular target: T4, Ba/F3 KIF5B-RET cells (Homo sapiens, UniProt P07949); experiment: Ba/F3 KIF5B-RET cell proliferation (CellTiter-Glo); type: cell-based; details: 72 to 144 hours, read-out: Ba/F3 KIF5B-RET IC50
T4 construct: fused on or other part: P33176 (Kinesin-1 heavy chain)
Experimental: When Ba/F3 KIF5B-RET cells were cultured to the appropriate cell density, cells were collected, and the cells were adjusted to the appropriate cell concentration using complete medium, and the cell suspension was spread in a 96-well plate, 90 μL per well, and placed in a 37° C., 5% CO2 incubator for overnight; compound solutions of different concentrations were prepared using DMSO and culture medium; a solvent control was set, and the compound solution was added to a 96-well plate with 10 μL per well at 37° C. in a 5% CO2 incubator for 72 to 144 hours; CellTiter-Glo solution was added thereto and mixed well by shaking, incubated for 10 min in the dark, and read by BioTek Synergy H1 microplate reader.
The luminescence signal values were used to calculate the inhibition rate, the concentrations and the inhibition rates were fitted to a nonlinear regression curve using Graphpad Prism software.

T3 sequence (P35968 20-1356): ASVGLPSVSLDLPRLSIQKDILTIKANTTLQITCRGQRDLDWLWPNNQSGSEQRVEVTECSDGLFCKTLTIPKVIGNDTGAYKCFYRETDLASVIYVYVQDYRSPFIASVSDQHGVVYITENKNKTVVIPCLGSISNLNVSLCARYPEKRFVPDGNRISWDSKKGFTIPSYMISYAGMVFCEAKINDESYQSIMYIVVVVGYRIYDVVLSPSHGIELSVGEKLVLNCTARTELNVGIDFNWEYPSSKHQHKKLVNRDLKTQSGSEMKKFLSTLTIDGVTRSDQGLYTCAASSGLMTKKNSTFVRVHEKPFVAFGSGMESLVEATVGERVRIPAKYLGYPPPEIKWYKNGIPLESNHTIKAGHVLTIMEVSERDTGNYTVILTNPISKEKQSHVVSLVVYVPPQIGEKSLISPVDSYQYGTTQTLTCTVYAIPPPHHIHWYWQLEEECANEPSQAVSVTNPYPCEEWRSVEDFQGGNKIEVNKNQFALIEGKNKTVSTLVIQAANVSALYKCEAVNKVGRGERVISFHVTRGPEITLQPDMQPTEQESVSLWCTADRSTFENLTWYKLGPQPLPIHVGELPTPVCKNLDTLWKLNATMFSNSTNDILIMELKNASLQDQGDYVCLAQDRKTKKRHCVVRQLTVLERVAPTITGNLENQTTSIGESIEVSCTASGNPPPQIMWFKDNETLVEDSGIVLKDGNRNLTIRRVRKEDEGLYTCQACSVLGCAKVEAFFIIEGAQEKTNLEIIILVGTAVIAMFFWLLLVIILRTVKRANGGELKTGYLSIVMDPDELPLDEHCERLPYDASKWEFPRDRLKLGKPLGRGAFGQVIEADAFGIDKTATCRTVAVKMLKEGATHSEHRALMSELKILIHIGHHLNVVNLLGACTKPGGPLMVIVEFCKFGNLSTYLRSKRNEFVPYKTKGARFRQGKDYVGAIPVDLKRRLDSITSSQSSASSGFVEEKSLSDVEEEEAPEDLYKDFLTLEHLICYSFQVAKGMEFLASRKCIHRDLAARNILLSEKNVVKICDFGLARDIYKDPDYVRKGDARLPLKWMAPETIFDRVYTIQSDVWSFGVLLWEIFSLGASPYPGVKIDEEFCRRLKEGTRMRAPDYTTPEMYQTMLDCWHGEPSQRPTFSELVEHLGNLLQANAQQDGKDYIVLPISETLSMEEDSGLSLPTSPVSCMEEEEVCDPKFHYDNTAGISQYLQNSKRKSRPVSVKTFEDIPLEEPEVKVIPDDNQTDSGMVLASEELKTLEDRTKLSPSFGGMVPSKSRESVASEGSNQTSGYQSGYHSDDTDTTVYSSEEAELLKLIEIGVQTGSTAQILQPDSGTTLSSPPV
T4 sequence (P07949 whole entry, change not shown, the tested form may be a part): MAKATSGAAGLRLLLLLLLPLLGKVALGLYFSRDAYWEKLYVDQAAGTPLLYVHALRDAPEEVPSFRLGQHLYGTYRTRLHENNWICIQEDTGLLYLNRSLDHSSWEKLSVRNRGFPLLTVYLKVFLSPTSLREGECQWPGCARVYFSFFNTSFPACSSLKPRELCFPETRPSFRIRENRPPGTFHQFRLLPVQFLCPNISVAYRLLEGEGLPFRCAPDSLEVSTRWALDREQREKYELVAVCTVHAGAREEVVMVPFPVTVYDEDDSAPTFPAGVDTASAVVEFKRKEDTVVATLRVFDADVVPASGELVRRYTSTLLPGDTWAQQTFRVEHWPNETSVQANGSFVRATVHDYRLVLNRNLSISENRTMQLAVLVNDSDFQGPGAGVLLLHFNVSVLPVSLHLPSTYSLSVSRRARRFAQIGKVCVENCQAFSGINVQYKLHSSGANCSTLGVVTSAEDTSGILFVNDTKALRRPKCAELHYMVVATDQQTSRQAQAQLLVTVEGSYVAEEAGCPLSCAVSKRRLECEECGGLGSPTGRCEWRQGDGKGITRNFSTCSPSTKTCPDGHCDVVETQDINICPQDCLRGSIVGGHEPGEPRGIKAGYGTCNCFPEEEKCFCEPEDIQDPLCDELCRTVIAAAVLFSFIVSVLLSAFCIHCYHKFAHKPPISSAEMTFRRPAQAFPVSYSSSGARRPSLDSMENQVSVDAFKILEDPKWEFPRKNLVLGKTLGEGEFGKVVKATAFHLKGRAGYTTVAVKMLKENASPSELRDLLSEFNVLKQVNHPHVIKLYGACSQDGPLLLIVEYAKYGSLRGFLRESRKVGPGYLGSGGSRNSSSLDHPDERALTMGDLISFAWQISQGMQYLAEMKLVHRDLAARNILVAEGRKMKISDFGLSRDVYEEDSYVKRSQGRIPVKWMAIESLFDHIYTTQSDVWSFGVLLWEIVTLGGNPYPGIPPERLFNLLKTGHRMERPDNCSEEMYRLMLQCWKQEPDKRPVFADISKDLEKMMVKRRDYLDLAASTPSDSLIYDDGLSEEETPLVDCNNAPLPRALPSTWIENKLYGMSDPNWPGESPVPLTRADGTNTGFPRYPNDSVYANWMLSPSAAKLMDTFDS
T2 sequence (P07949 29-1114): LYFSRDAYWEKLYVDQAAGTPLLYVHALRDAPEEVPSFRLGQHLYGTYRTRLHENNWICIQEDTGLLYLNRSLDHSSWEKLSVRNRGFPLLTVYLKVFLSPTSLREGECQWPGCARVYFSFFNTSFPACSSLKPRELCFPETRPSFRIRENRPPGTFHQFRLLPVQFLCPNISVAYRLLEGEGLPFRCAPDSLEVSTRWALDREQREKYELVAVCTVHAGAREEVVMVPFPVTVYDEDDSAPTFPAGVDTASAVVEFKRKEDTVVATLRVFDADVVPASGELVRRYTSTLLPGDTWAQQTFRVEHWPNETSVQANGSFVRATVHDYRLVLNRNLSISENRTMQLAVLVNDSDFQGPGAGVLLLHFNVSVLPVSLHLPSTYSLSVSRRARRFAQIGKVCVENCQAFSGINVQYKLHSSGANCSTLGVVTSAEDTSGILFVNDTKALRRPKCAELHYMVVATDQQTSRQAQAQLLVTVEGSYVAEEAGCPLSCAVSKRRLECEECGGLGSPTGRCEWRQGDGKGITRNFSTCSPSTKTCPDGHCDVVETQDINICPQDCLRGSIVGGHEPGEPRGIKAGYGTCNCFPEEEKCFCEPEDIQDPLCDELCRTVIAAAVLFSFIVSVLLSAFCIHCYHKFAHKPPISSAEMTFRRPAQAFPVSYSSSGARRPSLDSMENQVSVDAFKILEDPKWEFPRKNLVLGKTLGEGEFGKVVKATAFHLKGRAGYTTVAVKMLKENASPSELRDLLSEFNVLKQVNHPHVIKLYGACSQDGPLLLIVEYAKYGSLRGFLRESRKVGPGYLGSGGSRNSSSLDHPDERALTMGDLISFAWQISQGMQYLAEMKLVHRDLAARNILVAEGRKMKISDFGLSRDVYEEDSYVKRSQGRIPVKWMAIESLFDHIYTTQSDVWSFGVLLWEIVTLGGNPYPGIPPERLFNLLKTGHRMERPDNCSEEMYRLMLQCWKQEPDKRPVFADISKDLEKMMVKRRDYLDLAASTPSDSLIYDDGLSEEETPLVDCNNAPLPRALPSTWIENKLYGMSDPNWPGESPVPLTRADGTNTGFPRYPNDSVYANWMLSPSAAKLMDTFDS
T1 sequence (P07949 29-1114 M918T): as the sequence (P07949 29-1114) above, with M890T counted along it

| SMILES | IC50 (RET M918T) | IC50 [1] | MRT ([2]; read-out: Average residence time MRT) | Cmax ([2]; read-out: Blood concentration Cmax) | AUC(0-t) ([2]; read-out: Curve area AUC0-t) | AUC(0-inf) ([2]; read-out: Curve area AUC0-∞) | half-life ([2]; read-out: Half-life t1/2 (converted)) | Tmax ([2]; read-out: Peak time tmax) | IC50 (RET) | IC50 (KDR kinase) | Ratio (KDR/RET) (KDR kinase) | GI50 (Ba/F3 KIF5B-RET cells) |
| --- | --- | --- | --- | --- | --- | --- | --- | --- | --- | --- | --- | --- |
| COc1ccc(CN2C3CC2CN(c2ccc(-c4cc(OCC5(C#N)CC5)cn5ncc(C#N)c45)cn2)C3)cn1 [Embodiment 106, 6-((1-Cyanocyclopropyl)methoxy)-4-(6-(6-((6-methoxypyridin-3-yl)methyl)-3,6-diazabicyclo[3.1.1]heptan-3-yl)pyridin-3-yl)pyrazolo[1,5-a]pyridine-3-carbonitrile] | 0.47 nM | 19 nM | 4.71 h | 3120 ng/mL | 18900 ng·h/mL | 18900 ng·h/mL | 2.66 h | 0.5 h | – | – | – | – |
| COc1ncc(CN2C3CC2CN(c2ccc(-c4cc(OC[C@H]5C[C@@](C)(O)C5)cn5ncc(C#N)c45)cn2)C3)cc1F [Embodiment 161, 4-(6-(6-((5-Fluoro-6-methoxypyridin-3-yl)methyl)-3,6-diazabicyclo[3.1.1]heptan-3-yl)pyridin-3-yl)-6-((cis-3-hydroxy-3-methylcyclobutyl)methoxy)pyrazolo[1,5-a]pyridine-3-carbonitrile] | – | 13.9 nM | – | – | – | – | – | – | 0.37 nM | 7.4 nM | 20 | 8.59 nM |
| CC1(NC(=O)c2ncccc2Cl)CCN(c2ccc(-c3cc(C#CC4(O)COC4)cn4ncc(C#N)c34)cn2)CC1 [Embodiment 175, 3-Chloro-N-(1-(5-(3-cyano-6-((3-hydroxyoxetan-3-yl)ethynyl)pyrazolo[1,5-a]pyridin-4-yl)pyridin-2-yl)-4-methylpiperidin-4-yl)picolinamide] | – | 18.5 nM | – | – | – | – | – | – | 0.25 nM | 47 nM | 185 | 15.5 nM |
